These results are taken from the supplement of paper PMC11616607.

One assay relates to OVCAR5. Description: drug sensitivity score (DSS) from 5-point dose-response viability curve (DSS (area-under-curve based score)); higher = more sensitive (stronger growth inhibition or killing); extreme values may be limits of the assay. Conditions: exposure time: 72 h; concentration range: 5 concentrations over 10,000-fold range. The method, boiled down: (§1)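 Ovarian cancer and normal ovarian cell lines were tested in 384-well plates, with drugs dispensed acoustically (Echo 550) in DMSO or water at five concentrations covering a 10,000-fold range. After 1,500 cells per well were added, plates were incubated for 3 days at 37°C and 5% CO2, and viability was read by CellTiter-Glo luminescence on a PHERAstar FS. Breeze software gave a drug sensitivity score for each cell line and drug, where a higher score means greater sensitivity. A value of zero means no response.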
`COc1c(C)cnc(Cn2cnc3c(Cl)nc(N)nc32)c1C` [BIIB021] returned a drug sensitivity score of 17.3.

`CO[C@@H]1[C@H](N(C)C(=O)c2ccccc2)C[C@H]2O[C@]1(C)n1c3ccccc3c3c4c(c5c6ccccc6n2c5c31)C(=O)NC4` [Midostaurin]: the drug sensitivity score came to 5.3.

For the compound `COc1ccc(S(=O)(=O)Nc2cccnc2Nc2ccc(O)cc2)cc1` [ABT-751], the drug sensitivity score came to 10.3.

On to `COc1cc2ncnc(Nc3cccc(Cl)c3F)c2cc1OC(=O)N1CCN(C)C[C@H]1C` [AZD3759], for which the drug sensitivity score turned out to be 0.2.

For `C[C@H]1CN(C2COC2)CCN1c1ccc(Nc2cc(-c3ccnc(N4CCn5c(cc6c5CC(C)(C)C6)C4=O)c3CO)cn(C)c2=O)nc1` [GDC-0853], the drug sensitivity score was 0.

As for `CCCOc1ccn2c(C(C)=O)cc(-c3ccccc3S(C)(=O)=O)c2c1` [GSK2801], the drug sensitivity score amounted to 0.

Compound `CC(C)N(CCCNC(=O)Nc1ccc(C(C)(C)C)cc1)C[C@H]1O[C@@H](n2cc(Br)c3c(N)ncnc32)[C@H](O)[C@@H]1O` [SGC0946] showed a drug sensitivity score of 1.7.

For the compound `Cc1ccc(-n2nc(C(C)(C)C)cc2NC(=O)Nc2ccc(OCCN3CCOCC3)c3ccccc23)cc1` [Doramapimod], the drug sensitivity score stood at 1.1.

Compound `CO[C@@H](C)Cn1c(=O)n(C)c2cnc3ccc(-c4cncc(C(C)(C)O)c4)cc3c21` had a drug sensitivity score of 8.7.

As to `C[C@@H]1C[C@H]2[C@@H]3CCC4=CC(=O)C=C[C@]4(C)[C@@]3(F)[C@@H](O)C[C@]2(C)[C@@]1(O)C(=O)CO` [Dexamethasone], the drug sensitivity score worked out at 0.

As for `CN1CCN(c2nc(C3=C(c4c[nH]c5ccccc45)C(=O)NC3=O)c3ccccc3n2)CC1` [Sotrastaurin], the drug sensitivity score was 0.

`Cc1cc(F)c(C(=O)Nc2cccc(-c3nncn3C(C)C)n2)cc1-n1cnc(C2CC2)c1` [Selonsertib] displayed a drug sensitivity score of 0.

`O=C(/C=C\n1cnc(-c2cc(C(F)(F)F)cc(C(F)(F)F)c2)n1)NNc1ccccn1` [Verdinexor] displayed a drug sensitivity score of 7.5.

Turning to `Cn1nnc2c(C(N)=O)ncn2c1=O` [Temozolomide], the drug sensitivity score was found to be 0.

In turn, `NC(=O)N1CCC(CC(=O)N2CCC([C@H]3c4ncc(Br)cc4CCc4cc(Cl)cc(Br)c43)CC2)CC1` [Lonafarnib] came in with a drug sensitivity score of 9.1.

The compound `CCc1cnn2c(NCc3ccc[n+]([O-])c3)cc(N3CCCC[C@H]3CCO)nc12` [Dinaciclib] had a drug sensitivity score of 17.9.

As to `O=C(O)c1ccc(CN2CCC(CN[C@@H]3C[C@H]3c3ccccc3)CC2)cc1`, the drug sensitivity score came out at 0.

For `CN1CCN(c2ccc(C(=O)Nc3n[nH]c4ccc(Cc5cc(F)cc(F)c5)cc34)c(NC3CCOCC3)c2)CC1` [Entrectinib], the drug sensitivity score came to 1.

For the compound `O=c1[nH]c(=O)n([C@H]2C[C@H](O)[C@@H](CO)O2)cc1C(F)(F)F` [Trifluridine], the drug sensitivity score worked out at 2.9.

For `CCOC(=O)C1=CCCC[C@H]1S(=O)(=O)Nc1ccc(F)cc1Cl` [Resatorvid], the drug sensitivity score worked out at 0.

`CN(Cc1cnc2nc(N)nc(N)c2n1)c1ccc(C(=O)N[C@@H](CCC(=O)O)C(=O)O)cc1` [Methotrexate]: the drug sensitivity score was 13.8.

`CN1CCN(C2CCC(n3cc(-c4ccc(Oc5ccccc5)cc4)c4c(N)ncnc43)CC2)CC1` (stereo unspecified) gave a drug sensitivity score of 15.1.

In turn, `COc1cc2nccc(Oc3ccc(NC(=O)Nc4cc(C)on4)c(Cl)c3)c2cc1OC` [Tivozanib] yielded a drug sensitivity score of 4.

`C[C@H]1C[C@@H](n2c(Nc3ccc(OC(F)(F)F)cc3)nc3cc(CCC(=O)O)ccc32)CC(C)(C)C1`: the drug sensitivity score is 0.

`CN1CCN(C2CCN(C(=O)Nc3cc(Oc4ccc(NC(=O)C5(C(=O)Nc6ccc(F)cc6)CC5)c(F)c4)ccn3)CC2)CC1` [Golvatinib] displayed a drug sensitivity score of 0.1.

Compound `Cc1cc([C@@H](C)Nc2ccccc2C(=O)O)c2nc(N3CCOCC3)cc(=O)n2c1` [AZD-6482] registered a drug sensitivity score of 0.1.

Compound `CC1=C(/C=C/C(C)=C/C=C/C(C)=C/C(=O)O)C(C)(C)CCC1` [Tretinoin] gave a drug sensitivity score of 0.

In turn, `CC[C@H](Nc1ncnc2[nH]cnc12)c1nc2cccc(F)c2c(=O)n1-c1ccccc1` [Idelalisib] had a drug sensitivity score of 2.7.

As to `O=c1[nH]cc(F)c(=O)[nH]1` [Fluorouracil], the drug sensitivity score came to 2.7.

As for `O=C(NOCCO)c1ccc2cncn2c1Nc1ccc(I)cc1F` [GDC-0623], the drug sensitivity score is 6.1.

The compound `CC(C)[C@H](C(=O)Nc1ccc(C(=O)NO)cc1)c1ccccc1` [AR-42] showed a drug sensitivity score of 16.5.

Another assay relates to OVCAR8. Described as above. The note with it: exposure time: 72 h; concentration range: 5 concentrations over 10,000-fold range. The method, boiled down:
as §1
In the case of `COc1c(C)cnc(Cn2cnc3c(Cl)nc(N)nc32)c1C` [BIIB021], the drug sensitivity score is 19.7.

For `CO[C@@H]1[C@H](N(C)C(=O)c2ccccc2)C[C@H]2O[C@]1(C)n1c3ccccc3c3c4c(c5c6ccccc6n2c5c31)C(=O)NC4` [Midostaurin], the drug sensitivity score was determined as 7.

Take `COc1ccc(S(=O)(=O)Nc2cccnc2Nc2ccc(O)cc2)cc1` [ABT-751]: the drug sensitivity score stood at 11.5.

The compound `COc1cc2ncnc(Nc3cccc(Cl)c3F)c2cc1OC(=O)N1CCN(C)C[C@H]1C` [AZD3759] displayed a drug sensitivity score of 0.

Compound `C[C@H]1CN(C2COC2)CCN1c1ccc(Nc2cc(-c3ccnc(N4CCn5c(cc6c5CC(C)(C)C6)C4=O)c3CO)cn(C)c2=O)nc1` [GDC-0853] registered a drug sensitivity score of 0.

In the case of `CCCOc1ccn2c(C(C)=O)cc(-c3ccccc3S(C)(=O)=O)c2c1` [GSK2801], the drug sensitivity score is 0.

Compound `CC(C)N(CCCNC(=O)Nc1ccc(C(C)(C)C)cc1)C[C@H]1O[C@@H](n2cc(Br)c3c(N)ncnc32)[C@H](O)[C@@H]1O` [SGC0946] had a drug sensitivity score of 0.

As to `Cc1ccc(-n2nc(C(C)(C)C)cc2NC(=O)Nc2ccc(OCCN3CCOCC3)c3ccccc23)cc1` [Doramapimod], the drug sensitivity score turned out to be 1.8.

In the case of `CO[C@@H](C)Cn1c(=O)n(C)c2cnc3ccc(-c4cncc(C(C)(C)O)c4)cc3c21`, the drug sensitivity score came out at 9.5.

Turning to `C[C@@H]1C[C@H]2[C@@H]3CCC4=CC(=O)C=C[C@]4(C)[C@@]3(F)[C@@H](O)C[C@]2(C)[C@@]1(O)C(=O)CO` [Dexamethasone], the drug sensitivity score is 0.

For the compound `CN1CCN(c2nc(C3=C(c4c[nH]c5ccccc45)C(=O)NC3=O)c3ccccc3n2)CC1` [Sotrastaurin], the drug sensitivity score was found to be 0.1.

Turning to `Cc1cc(F)c(C(=O)Nc2cccc(-c3nncn3C(C)C)n2)cc1-n1cnc(C2CC2)c1` [Selonsertib], the drug sensitivity score amounted to 0.

Regarding `O=C(/C=C\n1cnc(-c2cc(C(F)(F)F)cc(C(F)(F)F)c2)n1)NNc1ccccn1` [Verdinexor], the drug sensitivity score worked out at 10.9.

For the compound `Cn1nnc2c(C(N)=O)ncn2c1=O` [Temozolomide], the drug sensitivity score was found to be 0.

Regarding `NC(=O)N1CCC(CC(=O)N2CCC([C@H]3c4ncc(Br)cc4CCc4cc(Cl)cc(Br)c43)CC2)CC1` [Lonafarnib], the drug sensitivity score was 9.4.
